Structures are written as SMILES. Activity calls are given as the source filed them.

The values below come from ChEMBL document CHEMBL1201862, “PubChem BioAssay data set” (2004).

The subject of data set [1] is Escherichia coli. Nature of the data set: microbe, parasite or virus in culture.
Data set [2] has as its target DNA damage-inducible transcript 3 protein (Mus musculus, UniProt P35639). In kind it is functional, Cricetulus griseus.
The target of data set [3] is Lysine-specific demethylase 4A (Homo sapiens, UniProt O75164). Kind of data set: JMJD2A histone demethylase inhibitors, dose response, selectivity assay for GASC-1 inhibitor project, biochemical, DELFIA europium, cherry-picked samples (AID 488840).
Data set [4] has as its target T1, Voltage-gated N-type calcium channel alpha-1B subunit/Amyloid beta A4 precursor protein-binding family A member 1 (Homo sapiens, UniProt Q00975+Q02410). In kind it is protein assay.
Data set [5] addresses T1, Voltage-gated N-type calcium channel alpha-1B subunit/Amyloid beta A4 precursor protein-binding family A member 1. The class given is protein assay. This is another data set of the same source.
The target in data set [6] is Induced myeloid leukemia cell differentiation protein Mcl-1 (Homo sapiens, UniProt Q07820). The class given is functional.
A short description of data set [7]: inhibitors of intracellular T. cruzi replication, confirmation, NIH3T3 host cells, beta-gal luminescence (AID 2044).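 Further: intracellular parasites grown in NIH/3T3 mouse fibroblasts as host cells; luminescent beta-galactosidase reporter signal from transgenic T. cruzi replicating inside host cells; inhibitors lower the luminescence signal.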 In kind it is functional, cell-based.
The nature of data set [8]: cytotoxicity toward NIH3T3 fibroblasts, dose response, counter-screen, cell-based, ATP luminescence, mouse fibroblasts (AID 2010).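 Further: cells exposed to compound for about 90 hours before reading.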 The class given is functional. In general terms: The purpose of a counterscreen is to sort out artefacts and off-target activity.
The target in data set [9] is Intestinal-type alkaline phosphatase (Mus musculus, UniProt P24822). Kind of data set: PubChem AID 488785. The class given is functional.
The target in data set [10] is T2, Alkaline phosphatase, tissue-nonspecific isozyme (Homo sapiens, UniProt P05186).
T2 sequence (P05186 whole entry): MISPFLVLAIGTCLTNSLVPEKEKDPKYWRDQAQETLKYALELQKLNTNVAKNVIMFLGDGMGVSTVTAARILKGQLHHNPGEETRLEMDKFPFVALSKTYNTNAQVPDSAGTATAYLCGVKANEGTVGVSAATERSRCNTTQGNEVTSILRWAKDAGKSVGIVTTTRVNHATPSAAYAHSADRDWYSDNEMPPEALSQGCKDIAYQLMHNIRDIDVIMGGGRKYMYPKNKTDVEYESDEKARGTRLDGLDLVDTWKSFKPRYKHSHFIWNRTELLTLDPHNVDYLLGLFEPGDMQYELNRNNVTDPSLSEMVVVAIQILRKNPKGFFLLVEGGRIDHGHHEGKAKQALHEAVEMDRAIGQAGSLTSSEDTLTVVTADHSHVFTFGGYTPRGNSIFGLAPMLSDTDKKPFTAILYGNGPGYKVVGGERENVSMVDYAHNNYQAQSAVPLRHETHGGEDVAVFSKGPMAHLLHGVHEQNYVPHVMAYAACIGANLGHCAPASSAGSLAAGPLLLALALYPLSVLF
Kind of data set: TNAP enzyme inhibition by screening hits, dose response, selectivity assay for mouse IAP inhibitor project, biochemical, human TNAP, uHTS hits (AID 488906). In kind it is functional.

For data set [11], the target named is Intestinal-type alkaline phosphatase (Homo sapiens, UniProt P09923). Nature of the data set: inhibition of human intestinal alkaline phosphatase – biochemical, dose response (AID 488876). The class given is functional.
Data set [12] addresses Delta-type opioid receptor (Homo sapiens, UniProt P41143). Nature of the data set: Counterscreen for agonists of heterodimerization of the mu 1 (OPRM1) and delta 1 (OPRD1) opioid receptors: Luminescence-based cell-based high throughput dose response assay to identify agonists of OPRD1 homodimerization. [Related pubchem assays (depositor defined):AID504326, AID504355, AID504692, AID504904, AID504905]. The class given is functional.

Data set [13] has as its target Mu-type opioid receptor (Homo sapiens, UniProt P35372). Nature of the data set: Counterscreen for agonists of heterodimerization of the mu 1 (OPRM1) and delta 1 (OPRD1) opioid receptors: Luminescence-based cell-based high throughput dose response assay to identify agonists of OPRM1 homodimerization. The class given is functional.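 Further: U2OS cells expressing OPRM1 and beta-arrestin as split beta-galactosidase partners.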
Data set [14] concerns the target 5-hydroxytryptamine receptor 5A (Homo sapiens, UniProt P47898). Nature of the data set: Counterscreen for agonists of OPRM1-OPRD1 heterodimerization: luminescence-based cell-based high throughput dose response assay to identify agonists of 5-hydroxytryptamine (serotonin) 5A receptor (HTR5A). [Related pubchem assays (depositor defined):AID504326, AID504355, AID504692, AID504904, AID504905]. The class given is functional.

The test system of data set [15] is Streptococcus sp. 'group A'. Kind of data set: growth inhibition of control SK(-) GAS strain, dose response, counter-screen for streptokinase expression inhibitor project, luminescence, kanamycin, BacTiterGlo, confirmation (AID 1900). In kind it is functional, organism-based.
Data set [16] relates to Streptococcus. Nature of the data set: Group A Streptococcus viability loss, dose response, counter-screen for streptokinase expression inhibitor project, luminescence, BacTiterGlo (AID 1915).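 Further: potency for reduction of bacterial viability or growth.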 The class given is functional, organism-based.
For data set [17], the system named is Escherichia coli. Nature of the data set: microbe, parasite or virus in culture. This is another data set of the same source.
Data set [18] addresses CAAX prenyl protease 2 (Saccharomyces cerevisiae S288c, UniProt Q03530). The class given is biochemical.
Data set [19] addresses CAAX prenyl protease 2 (Homo sapiens, UniProt Q9Y256). Nature of the data set: human Rce1 protease inhibitors, dose response, biochemical, yeast membranes, quenched-peptide fluorescence, cherry-pick (AID 588849).
Data set [20] has as its system HEK293. Nature of the data set: cells. To be noted: Homo sapiens.
Data set [21] has as its system HEK293. Kind of data set: cells. The settings on record: Homo sapiens. This is another data set of the same source.
Data set [22] has as its target Glucose-6-phosphate 1-dehydrogenase (Homo sapiens, UniProt P11413). Nature of the data set: human G6PD enzyme inhibitors, dose response, selectivity assay for P. falciparum G6PD inhibitor project, biochemical, fluorescence (AID 504792). The class given is functional.
In data set [23] the target is Coagulation factor XII (Homo sapiens, UniProt P00748). The class given is functional.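 Further: activated factor XIIa alpha cleaving a fluorogenic AMC peptide substrate; inhibitor potency from loss of enzyme activity.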
Data set [24] deals with Sphingosine 1-phosphate receptor 2 (Homo sapiens, UniProt O95136). Nature of the data set: Dose Response Cell Based Assay for Agonists of the S1P2 Receptor. [Related pubchem assays: 729, 736, 843 ]. The class given is functional.
In data set [25] the test system is HeLa. Nature of the data set: HeLa cell cytotoxicity, dose response, cytotoxicity control for MITF activator project, CellTiter-Glo luminescence, cherry-pick samples (AID 540259). To be noted: Homo sapiens. The class given is functional, cell-based.
Data set [26] addresses G-protein coupled receptor 55 (Homo sapiens, UniProt Q9Y2T6). Kind of data set: GPR55 antagonists blocking LPI-driven arrestin recruitment, primary screen, imaging, U2OS, beta-arrestin-GFP, LPI agonist (AID 2013).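 Further: antagonist potency measured as reduced agonist-driven arrestin aggregation.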 The class given is functional.
The test system of data set [27] is Vero. Kind of data set: cells. To be noted: Chlorocebus sabaeus. In kind it is functional.
For data set [28], the target named is Peroxisome proliferator-activated receptor gamma/Nuclear receptor coactivator 2 (Homo sapiens, UniProt P37231). In kind it is functional.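 Further: agonist potency for raising coactivator recruitment to the receptor.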
For data set [29], the target named is Peroxisome proliferator-activated receptor gamma/Nuclear receptor coactivator 1 (Homo sapiens, UniProt P37231). The class given is functional.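 Further: agonist potency as compounds enhance coactivator SRC-1 recruitment to PPARgamma.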
Data set [30] deals with Peroxisome proliferator-activated receptor gamma/Nuclear receptor coactivator 3 (Homo sapiens, UniProt P37231). The class given is functional.
Data set [31] has as its target Cytochrome P450 2C19 (Homo sapiens, UniProt P33261). Nature of the data set: Cytochrome panel assay with activity outcomes. Panel member name: p450-cyp2c19 Compounds with AC50 equal or less than 10 uM are considered active. In kind it is functional.
Data set [32] addresses T3, Cytochrome P450 3A4 (Homo sapiens, UniProt P08684).
In data set [33] the test system is H4. Nature of the data set: Luminescence Cell-Based Dose Response HTS to Identify Activators of 5'UTR Stem-Loop Driven Prion Protein mRNA Translation in H4 Neuroglioblastoma Cells. [Related pubchem assays: 1829 (Project Summary), 1814 (Primary HTS)]. To be noted: Homo sapiens. In kind it is functional.
The target of data set [34] is Large T antigen (Simian virus 40, UniProt P03070). The class given is functional, Betapolyomavirus macacae.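 Further: Confirmatory-stage PubChem screen for compounds that inhibit SV40 T antigen.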
Data set [35] deals with T3, Cytochrome P450 3A4. The source holds these as a separate data set.

T1 sequence (Q00975 whole entry): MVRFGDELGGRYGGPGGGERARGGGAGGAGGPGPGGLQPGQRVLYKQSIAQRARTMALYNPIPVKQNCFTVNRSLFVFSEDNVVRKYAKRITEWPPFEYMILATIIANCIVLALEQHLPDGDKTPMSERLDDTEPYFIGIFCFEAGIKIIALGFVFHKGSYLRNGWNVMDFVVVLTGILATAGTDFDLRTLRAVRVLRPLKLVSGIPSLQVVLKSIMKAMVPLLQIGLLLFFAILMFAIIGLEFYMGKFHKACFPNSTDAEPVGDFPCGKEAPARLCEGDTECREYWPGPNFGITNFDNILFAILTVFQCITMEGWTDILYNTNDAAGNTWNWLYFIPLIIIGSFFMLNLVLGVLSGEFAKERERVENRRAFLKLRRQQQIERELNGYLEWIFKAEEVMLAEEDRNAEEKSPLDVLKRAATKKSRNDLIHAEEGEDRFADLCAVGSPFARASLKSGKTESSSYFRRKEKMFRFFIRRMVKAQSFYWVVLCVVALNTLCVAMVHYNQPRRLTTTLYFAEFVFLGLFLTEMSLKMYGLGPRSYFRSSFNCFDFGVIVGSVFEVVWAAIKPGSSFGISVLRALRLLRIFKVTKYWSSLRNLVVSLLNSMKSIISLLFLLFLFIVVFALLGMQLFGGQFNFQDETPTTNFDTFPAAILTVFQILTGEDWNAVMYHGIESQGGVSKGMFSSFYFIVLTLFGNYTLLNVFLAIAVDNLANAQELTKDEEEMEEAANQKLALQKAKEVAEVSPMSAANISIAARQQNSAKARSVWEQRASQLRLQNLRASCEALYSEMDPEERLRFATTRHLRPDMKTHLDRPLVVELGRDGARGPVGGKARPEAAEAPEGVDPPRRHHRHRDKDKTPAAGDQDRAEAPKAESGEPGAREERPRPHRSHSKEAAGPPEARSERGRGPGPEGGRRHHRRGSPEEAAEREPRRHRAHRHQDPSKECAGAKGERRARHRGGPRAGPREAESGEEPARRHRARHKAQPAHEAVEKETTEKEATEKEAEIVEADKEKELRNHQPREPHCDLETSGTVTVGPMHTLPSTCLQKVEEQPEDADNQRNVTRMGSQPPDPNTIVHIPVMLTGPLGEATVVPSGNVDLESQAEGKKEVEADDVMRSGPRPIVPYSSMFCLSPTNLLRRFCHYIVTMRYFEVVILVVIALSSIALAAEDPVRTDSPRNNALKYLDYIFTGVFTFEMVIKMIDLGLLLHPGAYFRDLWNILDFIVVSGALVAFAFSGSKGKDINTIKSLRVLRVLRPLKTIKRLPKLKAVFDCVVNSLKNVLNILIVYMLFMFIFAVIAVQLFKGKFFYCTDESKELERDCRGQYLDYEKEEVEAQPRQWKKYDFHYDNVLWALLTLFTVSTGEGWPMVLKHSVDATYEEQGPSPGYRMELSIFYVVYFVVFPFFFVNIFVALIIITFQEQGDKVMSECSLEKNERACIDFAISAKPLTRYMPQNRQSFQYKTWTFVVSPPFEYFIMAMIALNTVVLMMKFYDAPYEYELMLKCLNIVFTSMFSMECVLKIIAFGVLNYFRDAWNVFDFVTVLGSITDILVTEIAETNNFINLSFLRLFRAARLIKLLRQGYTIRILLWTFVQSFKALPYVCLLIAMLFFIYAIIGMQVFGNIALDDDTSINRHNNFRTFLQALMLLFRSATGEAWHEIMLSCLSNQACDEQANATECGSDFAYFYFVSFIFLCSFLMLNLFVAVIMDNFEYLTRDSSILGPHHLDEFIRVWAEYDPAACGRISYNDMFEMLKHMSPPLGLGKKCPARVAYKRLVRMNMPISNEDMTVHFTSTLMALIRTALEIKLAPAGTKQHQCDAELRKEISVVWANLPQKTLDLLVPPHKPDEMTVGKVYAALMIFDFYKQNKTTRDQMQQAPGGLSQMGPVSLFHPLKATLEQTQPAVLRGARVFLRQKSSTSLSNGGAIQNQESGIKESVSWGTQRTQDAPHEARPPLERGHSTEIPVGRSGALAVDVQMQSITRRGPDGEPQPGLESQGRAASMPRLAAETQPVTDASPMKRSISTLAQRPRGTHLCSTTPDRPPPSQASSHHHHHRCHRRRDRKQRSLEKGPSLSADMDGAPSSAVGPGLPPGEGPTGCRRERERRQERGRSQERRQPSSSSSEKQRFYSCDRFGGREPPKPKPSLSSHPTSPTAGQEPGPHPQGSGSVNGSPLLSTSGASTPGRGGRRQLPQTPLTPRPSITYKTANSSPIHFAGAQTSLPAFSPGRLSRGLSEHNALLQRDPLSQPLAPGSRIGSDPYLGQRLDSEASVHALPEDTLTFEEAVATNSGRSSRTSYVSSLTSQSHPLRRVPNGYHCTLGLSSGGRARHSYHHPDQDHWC
T1 sequence (Q02410 whole entry): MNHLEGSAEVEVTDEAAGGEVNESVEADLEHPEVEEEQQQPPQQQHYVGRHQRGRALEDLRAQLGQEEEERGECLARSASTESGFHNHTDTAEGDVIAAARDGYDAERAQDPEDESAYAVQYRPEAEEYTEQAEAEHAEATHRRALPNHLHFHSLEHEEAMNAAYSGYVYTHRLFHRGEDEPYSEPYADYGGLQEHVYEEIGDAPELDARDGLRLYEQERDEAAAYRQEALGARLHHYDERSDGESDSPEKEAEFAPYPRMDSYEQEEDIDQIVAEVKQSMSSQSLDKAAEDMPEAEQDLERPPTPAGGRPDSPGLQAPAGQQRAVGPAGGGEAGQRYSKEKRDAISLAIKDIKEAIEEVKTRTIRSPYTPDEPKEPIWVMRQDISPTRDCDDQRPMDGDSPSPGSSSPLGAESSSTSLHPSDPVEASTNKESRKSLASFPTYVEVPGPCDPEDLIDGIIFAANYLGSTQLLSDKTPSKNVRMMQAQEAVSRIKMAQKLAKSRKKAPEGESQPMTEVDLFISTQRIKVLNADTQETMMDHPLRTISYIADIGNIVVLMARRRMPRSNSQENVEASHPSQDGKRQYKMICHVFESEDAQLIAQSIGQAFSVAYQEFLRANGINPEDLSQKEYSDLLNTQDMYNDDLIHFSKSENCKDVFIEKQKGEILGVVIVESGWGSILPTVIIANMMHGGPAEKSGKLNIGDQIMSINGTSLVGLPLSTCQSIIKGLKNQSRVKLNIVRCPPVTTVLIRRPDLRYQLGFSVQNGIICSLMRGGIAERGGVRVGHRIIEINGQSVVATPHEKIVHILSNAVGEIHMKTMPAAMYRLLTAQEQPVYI
T3 sequence (P08684 whole entry): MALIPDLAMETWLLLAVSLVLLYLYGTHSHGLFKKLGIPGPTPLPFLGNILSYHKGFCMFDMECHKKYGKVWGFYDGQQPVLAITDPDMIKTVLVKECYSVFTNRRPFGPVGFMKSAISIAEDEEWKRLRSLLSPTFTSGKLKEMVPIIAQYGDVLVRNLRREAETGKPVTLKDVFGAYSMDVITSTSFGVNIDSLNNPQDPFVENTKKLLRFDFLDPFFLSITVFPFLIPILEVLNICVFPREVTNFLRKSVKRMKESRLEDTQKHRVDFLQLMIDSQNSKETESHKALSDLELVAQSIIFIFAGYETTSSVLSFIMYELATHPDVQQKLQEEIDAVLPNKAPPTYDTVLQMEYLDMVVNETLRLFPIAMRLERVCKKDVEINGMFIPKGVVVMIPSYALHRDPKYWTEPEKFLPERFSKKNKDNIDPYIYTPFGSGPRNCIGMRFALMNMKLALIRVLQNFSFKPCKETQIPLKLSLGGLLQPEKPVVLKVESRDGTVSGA
DNA damage-inducible transcript 3 protein, sequence (P35639 whole entry): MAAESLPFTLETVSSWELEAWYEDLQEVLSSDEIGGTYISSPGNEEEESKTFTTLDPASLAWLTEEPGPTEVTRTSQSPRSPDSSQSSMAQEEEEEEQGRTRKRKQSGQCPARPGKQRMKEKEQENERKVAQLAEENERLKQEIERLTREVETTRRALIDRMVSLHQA
Coagulation factor XII, sequence (P00748 20-372 limits assumed): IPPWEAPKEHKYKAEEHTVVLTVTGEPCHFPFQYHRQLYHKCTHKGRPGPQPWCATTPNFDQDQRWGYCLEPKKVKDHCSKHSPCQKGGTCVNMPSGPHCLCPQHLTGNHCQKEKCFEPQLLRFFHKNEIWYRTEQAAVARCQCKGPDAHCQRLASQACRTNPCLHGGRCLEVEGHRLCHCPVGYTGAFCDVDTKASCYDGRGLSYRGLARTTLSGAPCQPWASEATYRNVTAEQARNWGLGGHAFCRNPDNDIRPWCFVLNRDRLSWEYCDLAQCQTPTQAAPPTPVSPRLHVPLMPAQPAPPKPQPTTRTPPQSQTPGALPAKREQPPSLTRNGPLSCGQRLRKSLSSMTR
Coagulation factor XII, sequence (P00748 373-615 limits assumed): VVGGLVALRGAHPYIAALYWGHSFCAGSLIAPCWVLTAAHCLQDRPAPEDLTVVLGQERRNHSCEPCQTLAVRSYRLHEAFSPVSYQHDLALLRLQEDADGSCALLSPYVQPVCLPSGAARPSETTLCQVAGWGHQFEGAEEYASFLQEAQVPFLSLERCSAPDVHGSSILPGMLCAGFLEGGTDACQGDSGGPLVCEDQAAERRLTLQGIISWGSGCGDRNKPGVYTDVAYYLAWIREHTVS
Mu-type opioid receptor, sequence (P35372 whole entry): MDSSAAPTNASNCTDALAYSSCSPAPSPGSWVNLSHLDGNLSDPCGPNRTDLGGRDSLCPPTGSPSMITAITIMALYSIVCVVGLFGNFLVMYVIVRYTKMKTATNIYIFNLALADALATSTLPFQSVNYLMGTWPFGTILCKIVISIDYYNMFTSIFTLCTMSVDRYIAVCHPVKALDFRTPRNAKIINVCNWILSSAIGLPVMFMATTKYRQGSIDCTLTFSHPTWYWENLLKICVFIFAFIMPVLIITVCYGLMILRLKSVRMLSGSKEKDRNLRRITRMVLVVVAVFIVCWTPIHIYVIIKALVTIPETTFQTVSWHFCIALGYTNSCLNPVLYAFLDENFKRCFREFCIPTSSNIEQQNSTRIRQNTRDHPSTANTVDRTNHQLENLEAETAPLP

Turning to `CCOC(=O)[C@H]1[C@H]2COc3ccc(OC)cc3[C@H]2N2C(=O)CN(Cc3ccccc3)C(=O)[C@@]12C`, the AC50 (as a rule, the concentration giving half of the maximal activity seen) in data set [1] is 54.9 µM (active).

In the case of `COc1ccc(NC(S)=NC(NC(=O)/C=C/c2ccccc2)C(Cl)(Cl)Cl)cc1` (stereo unspecified), the “Absolute IC50 (CHOP)” value in data set [2] is less than 10 µM.

For `CCn1nnc(NC(=O)c2cc3ccccc3o2)n1`, the AC50 in data set [3] was 48.3 µM (active).

Regarding `O=C(CSc1nnc(O)nc1O)Nc1ccc2c(c1)C(=O)c1ccccc1C2=O`, the IC50 (usually the point on the concentration scale where inhibition reaches its midpoint) in data set [4] is > 56.8 µM (not active); in data set [5] it was > 50 µM (inactive); in data set [6], 1.68 µM (not active).

For `CCCn1ncc(CN2CCC(C(=O)Nc3cccc(-c4cccc(F)c4)c3)CC2)c1C`, the values for the EC50 in data set [7] and in [8] were 2.33 µM (active) and 3.89 µM (active), respectively. Also, the IC50 was 0.902 µM (active) in data set [9], 11.8 µM (active) in [10] and > 100 µM (inactive) in data set [11].

`CCC(=O)OC(Cc1ccccc1)(c1ccccc1)[C@H](C)CN(C)C` (stereo partly specified): the EC50 (commonly the concentration needed to bring the measured effect to its halfway point) in data set [12] is 86.4 µM (inactive); in [13] it was > 92.5 µM (inactive); in data set [14], > 92.5 µM (inactive).

Take `COc1c(N2CCN(C(S)=Nc3ccccc3F)C(C)C2)c(F)cc2c(=O)c(C(=O)O)cn(C3CC3)c12` (stereo unspecified): the EC50 is 2.24 µM (active) in data set [15] and 3.27 µM (active) in data set [16]. In data set [17], the AC50 was 0.518 µM (active).

As to `Cc1cccc(N(CC(=O)NC2CCCC2)C(=O)CCCC(=O)Nc2ccccn2)c1`, the AC50 in data set [17] is 25 µM (active).

Turning to `COc1ccc2cc(C(=O)C3CCCN(C(=O)c4cc(=O)n(C)c(=O)n4C)C3)ccc2c1` (stereo unspecified), the results for the AC50 in data set [18] and in data set [19] were 10.4 µM (active) and 14.2 µM (active), respectively.

`CC(C)(C)OC(=O)CC(S(=O)(=O)c1ccccc1)S(=O)(=O)c1ccccc1`: the EC50 in data set [20] and in [21] was > 59.6 µM (inactive) each time.

As to `COc1cc(C(=O)O/N=C2/C=C(C)C(=O)C=C2C)cc(OC)c1OC`, the IC50 in [22] was > 80 µM (inactive); in [23], 4.75 µM (active).

In the case of `O=c1c(-c2nc3ccccc3s2)cccn1Cc1ccccc1`, in [24], the EC50 is 7.37 µM (active). Further, the AC50 in [25] was 56.9 µM (active).

For `Cc1cc(/C=C2\SC(Nc3ccccc3)=NC2=O)c(C)n1-c1ccc(S(N)(=O)=O)cc1`, in data set [26], the IC50 was 1.66 µM (active). The EC50 is 3.03 µM (active) in [12], > 92.5 µM (inactive) in data set [13] and > 92.5 µM (inactive) in data set [14]. The CC50 (as a rule, the concentration at which the toxic effect on the cells reaches its halfway point) in data set [27] was 7.44 µM (active).

With `O=C(O)c1cc(O)c2c(c1)[C@@H]([C@H]1c3cc(C(=O)O)cc(O)c3C(=O)c3c(O[C@@H]4O[C@H](CO)[C@@H](O)[C@H](O)[C@H]4O)cccc31)c1cccc(O[C@@H]3O[C@H](CO)[C@@H](O)[C@H](O)[C@H]3O)c1C2=O` [SENNOSIDE B], the AC50 in data set [3] is 3.69 µM (active).

As to `C[N+](C)(C)C(Cc1ccccc1)C(=O)[O-]` (stereo unspecified), the IC50 in [9] was 4.35 µM (active); in [10], 60.4 µM (active); in [11] it was > 100 µM (inactive).

Turning to `N#Cc1c(N)nc(SCC(=O)C23CC4CC(CC(C4)C2)C3)c(C#N)c1-c1ccc(Cl)cc1`, the EC50 is 2.47 µM (active) in data set [28], 2.94 µM (active) in [29] and 8.07 µM (active) in data set [30]. The “Absolute IC50 (CHOP)” value in data set [2] worked out at 10 µM.

As to `Cc1ccc(C(=O)C2CCNCC2)cc1.Cl`, the AC50 entry in [31] and in data set [32] was “inconclusive” in each case.

With `O=C1CCCc2nc3c(cc21)C(O)Oc1c-3ccc2ccccc12` (stereo unspecified), in data set [33], the EC50 is > 120 µM (not active). In data set [25], the AC50 was 51 µM (active).

Turning to `COc1ccc(C2C(C(=O)O)c3ccccc3C(=O)N2C)cc1Br` (stereo unspecified), the IC50 in data set [23] is > 50 µM (inactive).

Consider `COc1ccc(N2CSC3=C(C#N)C(c4cccc(OC)c4OC)CC(=O)N3C2)cc1` (stereo unspecified), for which the IC50 was 11.7 µM (active) in data set [4], 12.3 µM (active) in [34] and > 50 µM (inactive) in data set [5].

For the molecule `Fc1cccc(NC(S)=NCCCN2CCOCC2)c1`, the results for the AC50 in data set [31] (read-out: AC50), in data set [35] and in data set [1] were 17.8 µM (inconclusive), 17.8 µM (inconclusive) and 17.3 µM (active), respectively.

Regarding `Cc1ccccc1C(=O)N1CCN(c2ccc([N+](=O)[O-])c(N3CCOCC3)c2)CC1`, the AC50 entry in data set [32] is recorded as “inconclusive”.
